# Test results from PubChem BioAssay (NCI).
#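 Tested at 5 concentrations; 48 h exposure; 96-well plates; endpoints linearly interpolated, else capped at highest concentration. TGI is the concentration that stops growth completely.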
# Key:
# Test in all cases: inhibition of tumour cell growth, NCI panel, 48 h
# MDA-N = system: MDA-N
# KM12 colon = system: KM12 colon
# OVCAR-5 ovarian = system: OVCAR-5 ovarian
# SF-268 CNS = system: SF-268 CNS
# SNB-75 CNS = system: SNB-75 CNS
# MDA-MB-231 breast = system: MDA-MB-231 breast
# BT-549 breast = system: BT-549 breast
# UO-31 renal = system: UO-31 renal
# U251 CNS = system: U251 CNS
# 786-0 renal = system: 786-0 renal
# MOLT-4 leukemia = system: MOLT-4 leukemia
# UACC-257 melanoma = system: UACC-257 melanoma
# IGROV1 ovarian = system: IGROV1 ovarian
# M14 melanoma = system: M14 melanoma
# HS 578T breast = system: HS 578T breast
# EKVX NSCLC = system: EKVX NSCLC
# T-47D breast = system: T-47D breast
# ACHN renal = system: ACHN renal
# A549 NSCLC = system: A549 NSCLC
# TK-10 renal = system: TK-10 renal
# K-562 leukemia = system: K-562 leukemia
# UACC-62 melanoma = system: UACC-62 melanoma
# OVCAR-3 ovarian = system: OVCAR-3 ovarian
# SK-OV-3 ovarian = system: SK-OV-3 ovarian
# SF-539 CNS = system: SF-539 CNS
# DU-145 prostate = system: DU-145 prostate
# NCI/ADR-RES ovarian = system: NCI/ADR-RES ovarian
# NCI-H460 lung = system: NCI-H460 lung
# HT29 colon = system: HT29 colon
# HL-60(TB) leukemia = system: HL-60(TB) leukemia
# COLO 205 colon = system: COLO 205 colon
# MDA-MB-435 = system: MDA-MB-435
# A498 renal = system: A498 renal
# NCI-H23 lung = system: NCI-H23 lung
# HOP-92 NSCLC = system: HOP-92 NSCLC
# CAKI-1 renal = system: CAKI-1 renal
# HCT-116 colon = system: HCT-116 colon
# HOP-62 NSCLC = system: HOP-62 NSCLC
# OVCAR-8 ovarian = system: OVCAR-8 ovarian
# SR leukemia = system: SR leukemia
# SK-MEL-28 melanoma = system: SK-MEL-28 melanoma
# SK-MEL-2 melanoma = system: SK-MEL-2 melanoma
# MCF7 breast = system: MCF7 breast
# HCT-15 colon = system: HCT-15 colon
# NCI-H226 lung = system: NCI-H226 lung
# OVCAR-4 ovarian = system: OVCAR-4 ovarian
# MALME-3M melanoma = system: MALME-3M melanoma
# LOX IMVI melanoma = system: LOX IMVI melanoma
# CCRF-CEM leukemia = system: CCRF-CEM leukemia
# SN12C renal = system: SN12C renal
# RXF 393 renal = system: RXF 393 renal
# SW-620 colon = system: SW-620 colon
# NCI-H522 lung = system: NCI-H522 lung
# SK-MEL-5 melanoma = system: SK-MEL-5 melanoma
structure (smiles),measurement,setting,value
Brc1sc(Br)c2c1[C@H](Br)C[C@@H]2Br,TGI,MDA-N,> 100 µM
same,TGI,KM12 colon,> 100 µM
same,TGI,OVCAR-5 ovarian,> 100 µM
same,TGI,SF-268 CNS,53.4 µM
same,TGI,SNB-75 CNS,85.3 µM
same,TGI,MDA-MB-231 breast,> 100 µM
same,TGI,BT-549 breast,79 µM
same,TGI,UO-31 renal,45.8 µM
same,TGI,U251 CNS,> 100 µM
same,TGI,786-0 renal,> 100 µM
same,TGI,MOLT-4 leukemia,95.5 µM
same,TGI,UACC-257 melanoma,> 100 µM
same,TGI,IGROV1 ovarian,> 100 µM
same,TGI,M14 melanoma,> 100 µM
same,TGI,HS 578T breast,77.1 µM
same,TGI,EKVX NSCLC,> 100 µM
same,TGI,T-47D breast,> 100 µM
same,TGI,ACHN renal,97.9 µM
same,TGI,A549 NSCLC,> 100 µM
same,TGI,TK-10 renal,> 100 µM
same,TGI,K-562 leukemia,> 100 µM
same,TGI,UACC-62 melanoma,88 µM
same,TGI,OVCAR-3 ovarian,> 100 µM
same,TGI,SK-OV-3 ovarian,> 100 µM
same,TGI,SF-539 CNS,44.5 µM
same,TGI,DU-145 prostate,61.2 µM
same,TGI,NCI/ADR-RES ovarian,63.9 µM
same,TGI,NCI-H460 lung,> 100 µM
same,TGI,HT29 colon,> 100 µM
same,TGI,HL-60(TB) leukemia,75.2 µM
same,TGI,COLO 205 colon,> 100 µM
same,TGI,MDA-MB-435,> 100 µM
same,TGI,A498 renal,> 100 µM
same,TGI,NCI-H23 lung,51.1 µM
same,TGI,HOP-92 NSCLC,61.5 µM
same,TGI,CAKI-1 renal,> 100 µM
same,TGI,HCT-116 colon,> 100 µM
same,TGI,HOP-62 NSCLC,> 100 µM
same,TGI,OVCAR-8 ovarian,57.2 µM
same,TGI,SR leukemia,97.7 µM
same,TGI,SK-MEL-28 melanoma,> 100 µM
same,TGI,SK-MEL-2 melanoma,56 µM
same,TGI,MCF7 breast,98.5 µM
same,TGI,HCT-15 colon,> 100 µM
same,TGI,NCI-H226 lung,59.2 µM
same,TGI,OVCAR-4 ovarian,44.9 µM
same,TGI,MALME-3M melanoma,63.2 µM
same,TGI,LOX IMVI melanoma,43.8 µM
same,TGI,CCRF-CEM leukemia,> 100 µM
same,TGI,SN12C renal,> 100 µM
same,TGI,RXF 393 renal,10.4 µM
same,TGI,SW-620 colon,> 100 µM
same,TGI,NCI-H522 lung,34.2 µM
same,TGI,SK-MEL-5 melanoma,> 100 µM
